Reference: ChEMBL document CHEMBL4699452, “Design, synthesis, and optimization of a series of 2-azaspiro[3.3]heptane derivatives as orally bioavailable fetal hemoglobin inducers” (Bioorg Med Chem Lett, 2020)
pEC50: −log10 of the molar value.

How the values were obtained:
[1] = Induction of fetal hemoglobin in human bone marrow derived CD34+ cells incubated for 5 days by FITC staining based flow cytometry analysis; assay type: functional, tissue-based; details: cd34-positive (myeloid/lymphoid) cell
[2] = Metabolic stability in monkey liver microsomes assessed as parent compound remaining at 0.5 mg/mL incubated for 0.5 hrs; assay type: ADME, Macaca mulatta, Microsome; details: rhesus monkey, read-out: Stabilty
[3] = Metabolic stability in human liver microsomes assessed as parent compound remaining at 0.5 mg/mL incubated for 0.5 hrs; assay type: ADME, Microsome; details: read-out: Stabilty
[4] = Induction of fetal hemoglobin in human bone marrow derived CD34+ cells assessed as maximum efficacy incubated for 5 days by FITC staining based flow cytometry analysis relative to decitabine; assay type: functional; details: CD34-positive (myeloid/lymphoid) cell, 120 h, time 5 day

pEC50 [1] | remaining at 0.5 h [2] [%] | remaining at 0.5 h [3] [%] | Structure (SMILES) | Emax [4] [%]
< 5.30 | 39 | 99 | CN(C)C(=O)CCN1CCc2[nH]c(-c3ccc(F)cc3)cc2C1=O | –
5.39 | – | – | CN(C)C(=O)CCCNC(=O)c1cc(-c2ccc(F)cc2)no1 | 55
< 5.30 | 52 | 61 | CC(CNC(=O)c1cc(-c2ccc(F)cc2)no1)C(=O)N(C)C (racemic) | –
5.77 | 4.7 | 81 | CN(C)C(=O)CCNC(=O)c1cc(-c2ccccc2)no1 | 51
5.21 | 11 | 84 | CN(C)C(=O)CNC(=O)c1cc(-c2ccc(F)cc2)no1 | 41
< 5.30 | – | – | CN(C)CCCNC(=O)c1cc(-c2ccc(F)cc2)no1 | –

Further lines, the molecule ahead of its results:

Structure (SMILES) | pEC50 [1] | remaining at 0.5 h [2] [%] | remaining at 0.5 h [3] [%] | Emax [4] [%]
CCN1CC2(CC(NC(=O)c3cc(-c4ccccc4)no3)C2)C1 | 5.30 | 87 | 100 | 50
CS(=O)(=O)N1CC2(CC(NC(=O)c3cc(-c4ccccc4)no3)C2)C1 | 5.41 | 87 | 76 | 45
CN(C)C(=O)CCN1CCc2c(cc(-c3ccc(F)cc3)n2C)C1=O | < 5.30 | 42 | > 100 | –
CCC(=O)N1CC2(CC(NC(=O)c3cc(-c4ccccc4)no3)C2)C1 | < 5.30 | 69 | 68 | 47
CN(C)C(=O)CCNC(=O)c1cc(C2CCCCC2)no1 | < 5.30 | 34 | > 100 | –
